Here are results for 4 substances from article PMC12682123, “Positron emission tomography to assess drug occupancy at peripheral and central incretin receptors” (eBioMedicine, 2025).

Read-outs that look alike come from different tables or passages of the source. No end group written: not given here. Where only a bound is given, the exact number is not on record here.

The Tmax is the time at which the peak concentration occurs.

One data set has as its system human GLP-1R. The conditions noted are these: 10 nM tracer; for reduction of [^68Ga]Ga-DO3A-Exendin-4 binding: 60 min, RT, p < 0.0001.
Data set [1] concerns GLP-1R.
Source text: Pigs (n = 9) were positioned in the PET/CT scanner (Discovery MI, GE Healthcare) in a supine position with the brain at the centre of the Field of View (FOV). […] The peptide mass dose was chosen to avoid self-block of the GLP-1R by unlabelled DO3A-Exendin-4 peptide in the formulation and was based on previous dose-escalation studies in non-human primates.[23] A dynamic 60-min PET scan was started at tracer injection, serving as the baseline scan to visualise and quantify GLP-1R expression under normal physiological conditions prior to drug intervention. Following the dynamic scan, a whole-body CT was acquired, immediately followed by a whole-body static PET scan covering the regions from the brain to the bladder.
One experiment used unlabelled DO3A-VS-Exendin-4 (6 μg/kg) as a positive control (Table 4).
The follow-up scan was designed to assess the decreased binding of the tracer to its receptor, which, when compared to the baseline scan, would indicate reduced receptor availability, such as that caused by drug occupancy at the target GLP-1 receptor.
The reconstructed dynamic and whole-body static PET images were analysed using PMOD Base Functionality (PBAS) tool (PMOD Technologies LLC, Zurich, Switzerland) through manual segmentation on trans-axial PET and CT projections. Segmented tissues included the descending aorta, pancreas, liver, spleen, kidneys, and muscle. The tracer distribution in brain regions was measured by automated segmentation of brain regions. This was achieved by fusing the acquired PET dynamic images with the PMOD MRI pig brain atlas. […] CVOs, such as pituitary gland, were not included in the brain atlas and were thus segmented manually.
(§2) The convention to the SUV was corrected to the time and administered amount of radioactivity (in MBq) and the weight (in kilograms) of the pig.
The target engagement or drug occupancy for each experiment was calculated by subtracting the SUV in a tissue at the follow-up scan from the SUV in the same tissue at the baseline scan. The difference was divided by the SUV in tissue at baseline and multiplied by 100 to reach the percentage of drug occupancy (Equation 1):Equation 1 Occupancy(%)=SUVbaseline−SUVfollow−up/SUVbaseline×100
All PET measurements were expressed as average SUVmean.
The next data set has as its system mice. The conditions noted are these: central administration; cited from earlier work. The source says: One of the advancements of GLP-1R/GIPR co-activation is potentially the reduced nausea, food aversion, and emesis associated with GLP-1R-based treatment, in addition to an even more increased reduction in appetite and calorie intake.[26]^,[39] These effects may be associated with central activation of GLP-1 receptors by these drugs, and it has been proposed that the concurrent activation of central GIPR by tirzepatide exerts an anti-emetic effect, thereby improving tolerability to GLP-1 receptor–mediated side effects.

Data set [2] relates to GIPR. As to the kind of experiment: In vivo GIPR drug occupancy in pigs using [^68Ga]S02-GIP-T4 PET. Further details: species or system pig. The conditions noted are these: infusion 0.5/50 μg/ml from 30 min before and throughout second scan, n = 1.
Description: The study design for GIPR occupancy assessment in pigs was identical to that of GLP-1R, except for the following differences:
The pigs (n = 5) were positioned in the PET/CT scanner in a supine position with either the brain (n = 2) or the pancreas (n = 3) in the FOV when using [^68Ga]S02-GIP-T4. A target dose of 0.5–1 MBq/kg of [^68Ga]S02-GIP-T4, corresponding to a standardised peptide mass dose of 0.1 μg/kg, was administered for both baseline and follow-up scans (Tables 5 and 6). The peptide mass dose was chosen to avoid self-block of the GIPR, and based on previous dose-escalation studies in non-human primates.[16]
SAR441255 was administered subcutaneously at a dose of 100 μg/kg in four pigs, as described above (Table 5). […]
The reconstructed dynamic and whole-body static PET images were analysed using PMOD Base Functionality (PBAS) tool (PMOD Technologies LLC, Zurich, Switzerland) through manual segmentation on trans-axial PET and CT projections. […] The tracer distribution in brain regions was measured by automated segmentation of brain regions. […]
as §2
The target engagement or drug occupancy for each experiment was calculated by subtracting the SUV in a tissue at the follow-up scan from the SUV in the same tissue at the baseline scan. […]
For data set [3] the following is noted: cited from earlier work. The source says:
(§1) This can likely be explained by the lower GLP-1R affinity of tirzepatide, which instead is shifted towards higher affinity to the GIPR.[26]

In data set [4] the test system is GIPR. The following applies: in vitro; cited from earlier work.
Source text: as §1

The test system of data set [5] is GLP-1R. The following applies: in vitro; cited from earlier work.
Source text: as §1

For data set [6] the following is noted: cited from earlier work. The source says: Tirzepatide is the first dual GLP-1R/GIPR agonist approved for the treatment of type 2 diabetes (T2D).[11]
This is another data set of the same source.

[7] abbreviates: pre-administration of unlabelled peptide as positive control, 6 μg/kg / 10 μg/kg (Table 4), n = 1.
Where [8] appears, read: even at highest doses (450 μg/kg) s.c.

Description for human GLP-1R: The receptor specificity assay was repeated four times.
The following procedures were then performed for both assays: After incubation, the sections were washed with cold PBS (3× 1 min), dipped in MilliQ water, and air-dried at 37 °C for 10 min. Finally, the sections were exposed to digital phosphorimager plates (BAS-MS, Fujifilm) overnight (>10 radioactive half-lives) followed by digitalisation using a phosphorimage scanner (Amersham Typhoon FLA 9500 Phosphor Imager, GE) with a 50-μm pixel size for image visualisation. A 10 μl reference droplet, containing a known amount of radioactivity, was incorporated to facilitate the quantification of the autoradiogram.
The pixel values, measured in counts/mm^2, were transformed into Bq/mm^2 using the internal reference.

Take “DO3A-Exendin-4: unlabelled peptide used for blocking, positive control; made by in-house SPPS by Sanofi”: in the data set with human GLP-1R (pre-incubated with 1 μM (10 min, PBS + 1% BSA)), the “reduction of [^68Ga]Ga-DO3A-Exendin-4 binding” value came out at 80 ± 16%. In the data set with GLP-1R [1] (setting [7]), the “decrease of [^68Ga]Ga-DO3A-Exendin-4 uptake in pancreas” value amounted to 73%, the “decrease of [^68Ga]Ga-DO3A-Exendin-4 uptake in pituitary gland” value is 53%, the “reduction of [^68Ga]Ga-DO3A-Exendin-4 uptake in hypothalamic region” value amounted to 55% and the “reduction of [^68Ga]Ga-DO3A-Exendin-4 uptake in mammillary body” value is on record as 60%.
Regarding “glucagon-like peptide-1 (HAEGTFTSDVSSYLEGQAAKEFIAWLVKGR; ends and bridges not checked; UniProt P01275 98-127, looked up) [GLP-1, endogenous incretin hormone]”, the food intake result with mice is recorded as “reduced food intake”.
For “glucose-dependent insulinotropic polypeptide [GIP (1–42)]”, the “decrease of pancreatic [^68Ga]S02-GIP-T4 signal” value in the data set with GIPR [2] worked out at 24%. Further, in the data set with mice, the food intake result was “reduced food intake”.
As to “tirzepatide: first dual GLP-1R/GIPR agonist approved for the treatment of type 2 diabetes”, the “competition with [^68Ga]Ga-DO3A-Exendin-4 at GLP-1R” value in the data set with human GLP-1R (10 μM) was “competed for an overlapping binding site of GLP-1R”. For the same substance, in the data set on human GLP-1R (pre-incubated with 10 μM), the “reduction of [^68Ga]Ga-DO3A-Exendin-4 binding” value came to 84.9 ± 7%. Further, the “occupancy in appetite-regulating brain regions” value in the data set with GLP-1R [1] (50–450 μg/kg s.c., experimental design not aligned with Tmax) is “did not show detectable occupancy”. For the same substance, in the data set on GLP-1R [1] (setting [8]), the “GLP-1R occupancy in pancreas, did not exceed” value is recorded as at most 60% and the “GLP-1R occupancy in pituitary, did not exceed” value is recorded as at most 60%. Further, the “Tmax (in words)” value in data set [3] (extended plasma half-life, no reference given) is on record as “on the order of days”. Besides, the time of peak concentration (Tmax) in data set [3] (subcutaneous) is reported as 8 to 72 h. The “affinity to GIPR vs endogenous GIP(1–42)” value with GIPR [4] is reported as “same affinity”. Moreover, the “affinity to GLP-1R vs native GLP-1” value in the data set with GLP-1R [5] is reported as “fivefold lower affinity”. Also, in data set [6], the “glucose-lowering effect vs mono GLP-1R agonism” value is given as “greater glucose-lowering effect” and the “weight reduction vs mono GLP-1R agonism” value is “greater weight reduction”.
